Measurements published in ChEMBL document CHEMBL4842362, “From virtual screening hits targeting a cryptic pocket in BACE-1 to a nontoxic brain permeable multitarget anti-Alzheimer lead with disease-modifying and cognition-enhancing effects” (Eur J Med Chem, 2021).
Converted amounts (≈) assume the structure as drawn. “And” between values parts separate entries of the source, which are not always exact repeats. Identical values can stand only once. The source made the active and inactive calls. The calls are words filed in the database; no cut-off is given here.

Legend:
[1] = Metal chelating activity assessed as compound-Fe2+ complex formation at 3 mM in presence of FeCl2 by UV-Vis spectra analysis
[2] = Metal chelating activity assessed as compound-Cu2+ complex formation at ratio of 5:1 by pyrocatechol violet assay; settings: dose 3.0 mM
[3] = Metal chelating activity assessed as compound-Cu2+ complex formation at ratio of 2:1 by pyrocatechol violet assay; settings: dose 3.0 mM
[4] = Metal chelating activity assessed as compound-Cu2+ complex formation at ratio of 1:1 by pyrocatechol violet assay; settings: dose 3.0 mM
[5] = Metal chelating activity assessed as compound-Cu2+ complex formation at ratio of 0.5:1 by pyrocatechol violet assay; settings: dose 3.0 mM
[6] = Metal chelating activity assessed as compound-Zn2+ complex formation at 3 mM in presence of ZnCl2 by UV-Vis spectra analysis
Beta-secretase 1 [7] = target: T1, Beta-secretase 1 (Homo sapiens, UniProt P56817); assay: Inhibition of human recombinant BACE-1 expressed in Escherichia coli at 10 uM using panvera peptide as a substrate incubated for 1 hr by fluorescence analysis relative to control
Acetylcholinesterase [8] = target: T2, Acetylcholinesterase (Homo sapiens, UniProt P22303); assay: Potency index, ratio of rhein-huprine hybrid IC50 to test compound IC50 for inhibition of human recombinant AChE using acetylthiocholine iodide as a substrate preincubated for 20 mins followed by substrate addition by spectrophotometric analysis
Acetylcholinesterase [9] = target: T2, Acetylcholinesterase; assay: Potency index, ratio of donepezil IC50 to test compound IC50 for inhibition of human recombinant AChE using acetylthiocholine iodide as a substrate preincubated for 20 mins followed by substrate addition by spectrophotometric analysis
Cholinesterase [10] = target: T3, Cholinesterase (Homo sapiens, UniProt P06276); assay: Potency index, ratio of rhein-huprine hybrid IC50 to test compound IC50 for inhibition of human serum BChE using butyrylthiocholine iodide as a substrate preincubated for 20 mins followed by substrate addition by spectrophotometric analysis; type: cell-free
Cholinesterase [11] = target: T3, Cholinesterase; assay: Potency index, ratio of huprine-Y IC50 to test compound IC50 for inhibition of human serum BChE using butyrylthiocholine iodide as a substrate preincubated for 20 mins followed by substrate addition by spectrophotometric analysis; type: cell-free
Cholinesterase [12] = target: T3, Cholinesterase; assay: Potency index, ratio of donepezil IC50 to test compound IC50 for inhibition of human serum BChE using butyrylthiocholine iodide as a substrate preincubated for 20 mins followed by substrate addition by spectrophotometric analysis; type: cell-free
[13] = target: Amyloid-beta precursor protein (Homo sapiens) (UniProt P05067); assay: Inhibition of amyloid beta (1 to 42) (unknown origin) aggregation in Escherichia coli BL21 (DE3) at 10 uM incubated overnight by thioflavin S based fluorescence analysis relative to control
[14] = target: Microtubule-associated protein tau (Homo sapiens) (UniProt P10636); assay: Inhibition of tau aggregation (unknown origin) in Escherichia coli BL21 (DE3) at 10 uM incubated overnight by thioflavin S based fluorescence analysis relative to control
[15] = Metal chelating activity assessed as compound-Cu2+ complex formation at 3 mM in presence of CuSO4 by UV-Vis spectra analysis
[16] = Antioxidant activity assessed as free radical scavenging activity at 500 uM incubated for 30 mins under dark condition by DPPH assay; type: functional
HT-22 [17] = assay: Neuroprotective activity against glutamate induced neuronal death in mouse HT-22 cells assessed as increase in cell viability at 1 to 25 uM by MTT assay; type: functional, cell-based; settings: dose 1-25 µM
[18] = Neurotoxicity in mouse HT-22 cells assessed as decrease in cell viability at up to 25 uM by MTT assay; type: cell-based
[19] = Acute toxicity in zebra fish embryos assessed as lethality measured every 24 hrs for 72 hrs; set-up: species or system Danio rerio; settings: zebrafish
[20] = Permeability of the compound in PBS/EtOH by PAMPA-BBB assay; type: ADME; settings: read-out: permeability
[21] = Kinetic solubility of the compound in DMSO/PBS buffer measured after 2 hrs by nephalometric analysis; type: physicochemical; settings: for solubility kinetic at 2 h: DMSO/PBS buffer, read-out: Kinetic_solubility
Acetylcholinesterase [22] = target: T2, Acetylcholinesterase
Description: Inhibition of human recombinant AChE using acetylthiocholine iodide as a substrate preincubated for 20 mins followed by substrate addition by spectrophotometric analysis

Cholinesterase [23] = target: T3, Cholinesterase
Description: Inhibition of human serum BChE using butyrylthiocholine iodide as a substrate preincubated for 20 mins followed by substrate addition by spectrophotometric analysis

Beta-secretase 1 [24] = target: T1, Beta-secretase 1; assay: Inhibition of human recombinant BACE-1 expressed in Escherichia coli using panvera peptide as a substrate incubated for 1 hr by fluorescence analysis
[25] = Neurotoxicity in mouse HT-22 cells assessed as decrease in cell viability at up to 10 uM by MTT assay; type: cell-based
[26] = Acute toxicity in zebra fish embryos assessed as lethality at 12.5 to 100 uM measured every 24 hrs for 72 hrs relative to control; set-up: species or system Danio rerio; settings: zebrafish, dose 12.5-100 µM, read-out: Activity
[27] = Antioxidant activity assessed as free radical scavenging activity incubated for 30 mins under dark condition by DPPH assay; type: functional
HT-22 [28] = assay: Neuroprotective activity against glutamate induced neuronal death in mouse HT-22 cells assessed as increase in cell viability by MTT assay; type: functional, cell-based; settings: dose 1-25 µM
HT-22 [29] = assay: Neuroprotective activity against glutamate induced neuronal death in mouse HT-22 cells assessed as increase in cell viability at 25 uM by MTT assay; type: functional, cell-based

Sequence of Microtubule-associated protein tau (Homo sapiens) (P10636 whole entry): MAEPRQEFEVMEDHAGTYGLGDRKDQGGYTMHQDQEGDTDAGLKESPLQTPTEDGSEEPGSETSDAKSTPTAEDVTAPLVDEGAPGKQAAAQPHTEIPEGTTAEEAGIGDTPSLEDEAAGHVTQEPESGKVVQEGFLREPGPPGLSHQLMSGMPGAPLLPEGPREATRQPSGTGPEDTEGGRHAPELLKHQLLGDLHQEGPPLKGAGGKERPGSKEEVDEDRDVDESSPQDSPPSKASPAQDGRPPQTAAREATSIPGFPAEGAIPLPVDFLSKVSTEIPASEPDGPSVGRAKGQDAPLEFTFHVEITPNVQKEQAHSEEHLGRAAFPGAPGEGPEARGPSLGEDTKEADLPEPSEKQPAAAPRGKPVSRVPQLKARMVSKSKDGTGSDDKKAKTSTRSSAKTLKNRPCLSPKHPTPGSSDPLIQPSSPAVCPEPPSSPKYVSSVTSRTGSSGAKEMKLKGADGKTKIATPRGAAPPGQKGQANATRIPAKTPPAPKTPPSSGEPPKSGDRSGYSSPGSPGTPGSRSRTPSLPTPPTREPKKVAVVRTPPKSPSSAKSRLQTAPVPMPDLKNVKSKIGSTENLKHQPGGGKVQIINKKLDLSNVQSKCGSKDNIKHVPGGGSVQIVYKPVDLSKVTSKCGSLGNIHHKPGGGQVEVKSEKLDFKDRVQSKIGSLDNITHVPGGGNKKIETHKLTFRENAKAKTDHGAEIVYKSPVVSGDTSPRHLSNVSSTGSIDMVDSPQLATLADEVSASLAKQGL
Sequence of Amyloid-beta precursor protein (Homo sapiens) (P05067 whole entry): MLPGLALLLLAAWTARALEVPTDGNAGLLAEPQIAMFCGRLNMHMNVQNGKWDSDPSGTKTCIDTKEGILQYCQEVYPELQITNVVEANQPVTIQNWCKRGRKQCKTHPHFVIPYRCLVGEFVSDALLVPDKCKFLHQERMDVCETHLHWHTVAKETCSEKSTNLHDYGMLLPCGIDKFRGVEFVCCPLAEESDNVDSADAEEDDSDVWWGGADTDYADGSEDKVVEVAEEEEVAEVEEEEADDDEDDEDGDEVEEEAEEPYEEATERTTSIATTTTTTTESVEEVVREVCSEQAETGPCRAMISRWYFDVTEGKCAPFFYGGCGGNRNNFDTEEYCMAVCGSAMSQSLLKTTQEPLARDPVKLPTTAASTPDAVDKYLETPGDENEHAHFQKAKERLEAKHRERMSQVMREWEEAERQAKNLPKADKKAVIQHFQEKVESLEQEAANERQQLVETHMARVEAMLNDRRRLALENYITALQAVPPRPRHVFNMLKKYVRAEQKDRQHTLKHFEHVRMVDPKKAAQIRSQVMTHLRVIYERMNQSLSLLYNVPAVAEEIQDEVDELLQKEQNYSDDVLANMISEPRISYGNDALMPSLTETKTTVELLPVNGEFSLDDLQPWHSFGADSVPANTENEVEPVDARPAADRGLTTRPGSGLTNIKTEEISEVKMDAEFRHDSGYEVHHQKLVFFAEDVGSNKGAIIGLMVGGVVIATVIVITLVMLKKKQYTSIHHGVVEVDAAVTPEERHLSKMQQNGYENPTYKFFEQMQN
T1 sequence (P56817 whole entry): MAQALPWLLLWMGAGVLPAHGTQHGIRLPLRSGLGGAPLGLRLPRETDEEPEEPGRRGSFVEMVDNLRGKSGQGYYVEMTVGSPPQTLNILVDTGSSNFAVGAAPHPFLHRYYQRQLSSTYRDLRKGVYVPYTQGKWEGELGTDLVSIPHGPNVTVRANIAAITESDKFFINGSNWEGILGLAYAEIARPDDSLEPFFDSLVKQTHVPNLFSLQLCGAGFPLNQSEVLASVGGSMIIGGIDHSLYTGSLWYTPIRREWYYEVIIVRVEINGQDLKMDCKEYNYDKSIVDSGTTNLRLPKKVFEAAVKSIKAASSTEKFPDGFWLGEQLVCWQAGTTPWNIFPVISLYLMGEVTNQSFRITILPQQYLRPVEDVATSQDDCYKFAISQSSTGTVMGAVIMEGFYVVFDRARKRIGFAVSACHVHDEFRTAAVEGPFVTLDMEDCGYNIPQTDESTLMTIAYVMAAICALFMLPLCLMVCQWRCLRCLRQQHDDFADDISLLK
T2 sequence (P22303 whole entry): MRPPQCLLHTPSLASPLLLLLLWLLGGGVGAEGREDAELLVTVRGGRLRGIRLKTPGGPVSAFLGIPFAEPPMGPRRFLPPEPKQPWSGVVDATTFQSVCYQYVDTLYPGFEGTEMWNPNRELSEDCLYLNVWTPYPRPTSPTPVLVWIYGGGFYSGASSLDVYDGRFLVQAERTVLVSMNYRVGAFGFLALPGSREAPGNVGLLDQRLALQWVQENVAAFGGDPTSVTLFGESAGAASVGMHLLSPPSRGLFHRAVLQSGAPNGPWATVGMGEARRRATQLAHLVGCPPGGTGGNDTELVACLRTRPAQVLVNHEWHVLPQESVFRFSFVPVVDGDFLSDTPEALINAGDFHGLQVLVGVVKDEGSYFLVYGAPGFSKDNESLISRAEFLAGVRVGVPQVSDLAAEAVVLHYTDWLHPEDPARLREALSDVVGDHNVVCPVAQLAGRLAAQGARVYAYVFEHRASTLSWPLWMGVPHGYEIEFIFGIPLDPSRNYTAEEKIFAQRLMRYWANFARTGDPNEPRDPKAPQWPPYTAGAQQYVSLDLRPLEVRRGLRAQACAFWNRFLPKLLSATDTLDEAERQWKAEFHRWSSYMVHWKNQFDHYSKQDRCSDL
T3 sequence (P06276 whole entry): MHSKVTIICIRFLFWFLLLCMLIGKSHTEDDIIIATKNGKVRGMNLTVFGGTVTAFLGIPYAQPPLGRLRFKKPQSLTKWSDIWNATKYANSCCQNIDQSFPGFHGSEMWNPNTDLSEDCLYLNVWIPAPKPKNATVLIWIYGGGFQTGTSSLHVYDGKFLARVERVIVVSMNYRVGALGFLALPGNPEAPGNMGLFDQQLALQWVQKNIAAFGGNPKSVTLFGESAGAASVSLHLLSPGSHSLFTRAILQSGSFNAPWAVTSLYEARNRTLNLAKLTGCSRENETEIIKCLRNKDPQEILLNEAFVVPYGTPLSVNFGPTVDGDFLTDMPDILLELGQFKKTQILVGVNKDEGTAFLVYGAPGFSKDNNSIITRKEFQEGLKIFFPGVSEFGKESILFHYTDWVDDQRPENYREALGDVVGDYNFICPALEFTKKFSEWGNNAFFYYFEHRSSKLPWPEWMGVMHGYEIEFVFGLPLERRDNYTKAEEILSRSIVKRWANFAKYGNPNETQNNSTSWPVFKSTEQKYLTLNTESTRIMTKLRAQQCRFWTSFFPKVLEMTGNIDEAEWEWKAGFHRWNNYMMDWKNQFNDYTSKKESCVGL

Row | SMILES | inhibition (Beta-secretase 1 [7]) | Ratio IC50 (Acetylcholinesterase [8]) | Ratio IC50 (Acetylcholinesterase [9]) | Ratio IC50 (Cholinesterase [10]) | Ratio IC50 (Cholinesterase [11]) | Ratio IC50 (Cholinesterase [12]) | inhibition [13] | inhibition [14] | Activity [16] | Activity [18] | LC50 at 72 h [19] | Papp [20] | solubility kinetic at 2 h [21] | IC50 (Acetylcholinesterase [22]) | IC50 (Cholinesterase [23]) | also measured
1 | O=C(O)CN(CCN(CC(=O)O)CC(=O)O)CC(=O)O | – | – | – | – | – | – | – | – | – | – | – | – | – | – | – | Activity [1]: Active; Activity [2]: Active; Activity [3]: Active; Activity [4]: Active; Activity [5]: Active
2 | CC1=CC2Cc3nc4cc(Cl)ccc4c(NCCCCCCCCCNC(=O)c4ccc[nH]c4=O)c3C(C1)C2 (configuration not stated) | 6.92% | < 9 | < 65 | 7 | 2 | 79 | 42.3% | 48.5% | inactive | Non-Toxic | 57800 nM | 6.7 ×10⁻⁶ cm/s | 7.7 µg/mL (≈ 14.1 µM) | 1.82 nM | 31.9 nM | Activity [6]: Active; Activity [15]: Active; Activity (HT-22 [17]): inactive
3 | CC1=CC2Cc3nc4cc(Cl)ccc4c(NCCCCCCCCCNS(=O)(=O)c4cn[nH]c4)c3C(C1)C2 (configuration not stated) | – | < 9 | < 65 | 7 | 2 | 79 | 35.3% | 55.5% | inactive | – | > 100000 nM | 6.3 ×10⁻⁶ cm/s | 5.7 µg/mL (≈ 10.2 µM) | 2.4 nM | 50.3 nM | Activity [6]: Active; Activity [1]: Active; IC50 (Beta-secretase 1 [24]): 10800 nM; Activity [15]: Active; Activity [2]: Active; Activity [3]: Active; Activity [4]: Active; Activity [5]: Active; Activity (HT-22 [17]): inactive; Activity [25]: Toxic
4 | CC1=CC2Cc3nc4cc(Cl)ccc4c(NCCCCCCCCC(=O)N4CCNC(=O)C4)c3C(C1)C2 (configuration not stated) | inactive | < 9 | < 65 | 7 | 2 | 79 | 9.7% | 15% | inactive | Non-Toxic | > 100000 nM | 4.9 ×10⁻⁶ cm/s | 43.3 µg/mL (≈ 82.8 µM) | 0.41 nM | 74.8 nM | –
5 | CC1=CC2Cc3nc4cc(Cl)ccc4c(NCCCCCCCCCNC(=O)c4cc(O)c5c(c4)C(=O)c4cccc(O)c4C5=O)c3C(C1)C2 (configuration not stated) | – | – | – | – | – | – | 47.9% | 29.6% | – | – | – | – | – | – | – | Kinetic_solubility ([21]; 2 h): 19.7 uM and 14.8 ug ml-1
6 | COc1cc(CNC(=O)CCCCCCCCNc2c3c(nc4cc(Cl)ccc24)CC2C=C(C)CC3C2)ccn1 (configuration not stated) | 26.5% | < 9 | < 65 | 7 | 2 | 79 | 29.4% | 41.6% | inactive | Non-Toxic | 7100 nM | 8.2 ×10⁻⁶ cm/s | 5.1 µg/mL (≈ 9.09 µM) | 1.25 nM | 88.5 nM | mortality at 24 h, 100 µM [26]: 75%
7 | O=C1O[C@H]([C@@H](O)CO)C(O)=C1O [ASCORBIC ACID] | – | – | – | – | – | – | – | – | – | – | – | – | – | – | – | EC50 [27]: 11800 nM
8 | CC1=CC2Cc3nc4cc(Cl)ccc4c(NCCCCCCCCC(=O)Nc4cn[nH]c4)c3C(C1)C2 (configuration not stated) | 16.2% | < 9 | < 65 | 7 | 2 | 79 | 32.6% | 45.3% | – | Non-Toxic | 69100 nM | 5.9 ×10⁻⁶ cm/s | 9.3 µg/mL (≈ 18.4 µM) | 2.39 nM | 64 nM | Activity [6]: Active; Activity [1]: Active; Activity [15]: Active; Activity [2]: Active; Activity [3]: Active; Activity [4]: Active; Activity [5]: Active; EC50 [27]: 19600 nM; Activity (HT-22 [28]): Dose-Dependent Effect
9 | CC1=CC2Cc3nc4cc(Cl)ccc4c(NCCCCCCCCC(=O)NCc4cc[nH]c(=O)c4)c3C(C1)C2 (configuration not stated) | inactive | < 9 | < 65 | 7 | 2 | 79 | 19.9% | 20.9% | – | Non-Toxic | > 100000 nM | 4.4 ×10⁻⁶ cm/s | 13.8 µg/mL (≈ 25.2 µM) | 0.63 nM | 75.8 nM | EC50 [27]: 90600 nM
10 | CC[N+](C)(CC)CCC[n+]1c(-c2ccccc2)c2cc(N)ccc2c2ccc(N)cc21 | – | – | – | – | – | – | 39.2% | – | – | – | – | – | – | – | – | –
11 | O=c1c(O)c(-c2ccc(O)c(O)c2)oc2cc(O)cc(O)c12 | – | – | – | – | – | – | – | – | – | – | – | – | – | – | – | Activity (HT-22 [29]): Active
12 | CC1=CC2Cc3nc4cc(Cl)ccc4c(N)c3C(C1)C2 (racemic) [HUPRINE Y] | – | – | – | – | – | – | – | – | – | – | 20900 nM | – | – | – | – | –
